Test results from PubChem BioAssay AID1963846 (Molecular Pharmacology Branch, DTP, NCI, 2024).

Tested on: 454973-116-R2-J3-PDC complex spheroid viability
Assay: Anticancer human tumor 454973-116-R2-J3-PDC patient-derived pancreatic carcinoma cell line growth inhibition [POLQ]
Conditions: for IC50: curve of first compound; for viability, T/C: stronger effect = lower value; active = viability on the fitted dose curve at most 10% of control; inactive = the rest
In short: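 Patient-derived tumour cells were co-cultured with HUVEC and mesenchymal stem cells as multicellular spheroids at 37 °C. They were treated with POLQ inhibitors (novobiocin, ART-558, RP6685) alone or combined with other agents. Top concentrations were at or near clinical Cmax (otherwise 10 microM; SN-38 at 1 microM), decreasing in half-log steps.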

[1] = second compound 0.0316 µM, first compound 0.0316 µM
[2] = second compound 0.0316 µM, first compound 0.1 µM
[3] = second compound 0.0316 µM, first compound 0.316 µM
[4] = second compound 0.0316 µM, first compound 1 µM
[5] = second compound 0.0316 µM, first compound 3.16 µM
[6] = second compound 0.0316 µM, first compound 10 µM
[7] = second compound 0.1 µM, first compound 0.0316 µM
[8] = second compound 0.1 µM, first compound 0.1 µM
[9] = second compound 0.1 µM, first compound 0.316 µM
[10] = second compound 0.1 µM, first compound 1 µM
[11] = second compound 0.1 µM, first compound 3.16 µM
[12] = second compound 0.1 µM, first compound 10 µM
[13] = second compound 0.316 µM, first compound 0.0316 µM
[14] = second compound 0.316 µM, first compound 0.1 µM
[15] = second compound 0.316 µM, first compound 0.316 µM
[16] = second compound 0.316 µM, first compound 1 µM
[17] = second compound 0.316 µM, first compound 3.16 µM
[18] = second compound 0.316 µM, first compound 10 µM
[19] = second compound 1 µM, first compound 0.0316 µM
[20] = second compound 1 µM, first compound 0.1 µM
[21] = second compound 1 µM, first compound 0.316 µM
[22] = second compound 1 µM, first compound 1 µM
[23] = second compound 1 µM, first compound 3.16 µM
[24] = second compound 1 µM, first compound 10 µM
[25] = second compound 3.16 µM, first compound 0.0316 µM
[26] = second compound 3.16 µM, first compound 0.1 µM
[27] = second compound 3.16 µM, first compound 0.316 µM
[28] = second compound 3.16 µM, first compound 1 µM
[29] = second compound 3.16 µM, first compound 3.16 µM
[30] = second compound 3.16 µM, first compound 10 µM
[31] = second compound 10 µM, first compound 0.0316 µM
[32] = second compound 10 µM, first compound 0.1 µM
[33] = second compound 10 µM, first compound 0.316 µM
[34] = second compound 10 µM, first compound 1 µM
[35] = second compound 10 µM, first compound 3.16 µM
[36] = second compound 10 µM, first compound 10 µM
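Note: spheroids exposed to drugs for seven days before measurement.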
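Throughout, for viability, T/C: percent viability relative to DMSO vehicle control wells taken as 100%.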

C#Cc1c(F)ccc2cc(O)cc(-c3ncc4c(N5CC6CCC(C5)N6)nc(OCC56CCCN5CC(F)C6)nc4c3F)c12 (stereo unspecified) + Nc1ccc(C#CCN(C(=O)Cc2ncc(C(F)(F)F)cc2C(F)(F)F)c2ccc(F)cc2)nn1
inactive: viability, T/C [1] 47.5% | viability, T/C [2] 36.1% | viability, T/C [3] 28.4% | viability, T/C [4] 24.1% | viability, T/C [5] 19% | viability, T/C [6] 18.1% | viability, T/C [7] 46.1% | viability, T/C [8] 36% | viability, T/C [9] 26% | viability, T/C [10] 24% | viability, T/C [11] 22.2% | viability, T/C [12] 18% | viability, T/C [13] 49.8% | viability, T/C [14] 35.8% | viability, T/C [15] 28.9% | viability, T/C [16] 25.5% | viability, T/C [17] 22.1% | viability, T/C [18] 19.6% | viability, T/C [19] 46.2% | viability, T/C [20] 35.1% | viability, T/C [21] 29.3% | viability, T/C [22] 25.4% | viability, T/C [23] 22.7% | viability, T/C [24] 18.8% | viability, T/C [25] 43.8% | viability, T/C [26] 35.4% | viability, T/C [27] 25.6% | viability, T/C [28] 25.2% | viability, T/C [29] 21.9% | viability, T/C [30] 18.5% | viability, T/C [31] 44.6% | viability, T/C [32] 39.3% | viability, T/C [33] 32.8% | viability, T/C [34] 28% | viability, T/C [35] 23.4% | viability, T/C [36] 23.5%
< 31.6 nM: IC50 (second compound 0.0316 µM) | IC50 (second compound 0.1 µM) | IC50 (second compound 0.316 µM) | IC50 (second compound 1 µM) | IC50 (second compound 3.16 µM) | IC50 (second compound 10 µM)

C=CC(=O)N1CCN(c2nc(=O)n(-c3c(C)ccnc3C(C)C)c3nc(-c4c(O)cccc4F)c(F)cc23)C(C)C1 (stereo unspecified) + Nc1ccc(C#CCN(C(=O)Cc2ncc(C(F)(F)F)cc2C(F)(F)F)c2ccc(F)cc2)nn1
inactive: viability, T/C [1] 103% | viability, T/C [2] 106% | viability, T/C [3] 110% | viability, T/C [4] 111% | viability, T/C [5] 113% | viability, T/C [6] 113% | viability, T/C [7] 103% | viability, T/C [8] 97.1% | viability, T/C [9] 110% | viability, T/C [10] 114% | viability, T/C [11] 111% | viability, T/C [12] 117% | viability, T/C [13] 102% | viability, T/C [14] 106% | viability, T/C [15] 107% | viability, T/C [16] 106% | viability, T/C [17] 124% | viability, T/C [18] 116% | viability, T/C [19] 102% | viability, T/C [20] 110% | viability, T/C [21] 109% | viability, T/C [22] 123% | viability, T/C [23] 121% | viability, T/C [24] 114% | viability, T/C [25] 111% | viability, T/C [26] 118% | viability, T/C [27] 120% | viability, T/C [28] 123% | viability, T/C [29] 125% | viability, T/C [30] 114% | viability, T/C [31] 118% | viability, T/C [32] 113% | viability, T/C [33] 116% | viability, T/C [34] 123% | viability, T/C [35] 137% | viability, T/C [36] 116%
> 10000 nM: IC50 (second compound 0.0316 µM) | IC50 (second compound 0.1 µM) | IC50 (second compound 0.316 µM) | IC50 (second compound 1 µM) | IC50 (second compound 3.16 µM) | IC50 (second compound 10 µM)

CC1COCCN1c1cc(-c2ccnn2C)c2ccnc(-c3ccn[nH]3)c2n1 (stereo unspecified) + Nc1ccc(C#CCN(C(=O)Cc2ncc(C(F)(F)F)cc2C(F)(F)F)c2ccc(F)cc2)nn1
inactive: viability, T/C [1] 83.6% | viability, T/C [2] 57.6% | viability, T/C [3] 19.8% | viability, T/C [4] 11.3% | viability, T/C [5] 14% | viability, T/C [6] 14.1% | viability, T/C [7] 80.3% | viability, T/C [8] 54.6% | viability, T/C [9] 20.1% | viability, T/C [10] 13.5% | viability, T/C [11] 11.2% | viability, T/C [12] 14.6% | viability, T/C [13] 91% | viability, T/C [14] 55.6% | viability, T/C [15] 19.1% | viability, T/C [16] 9.76% | viability, T/C [17] 12.6% | viability, T/C [18] 14.6% | viability, T/C [19] 90.2% | viability, T/C [20] 52.7% | viability, T/C [21] 16.8% | viability, T/C [22] 11.3% | viability, T/C [23] 13.6% | viability, T/C [24] 14.5% | viability, T/C [25] 88.7% | viability, T/C [26] 55.6% | viability, T/C [27] 18.2% | viability, T/C [28] 11.3% | viability, T/C [29] 9.64% | viability, T/C [30] 11.8% | viability, T/C [31] 92.5% | viability, T/C [32] 45.7% | viability, T/C [33] 17.5% | viability, T/C [34] 10.5% | viability, T/C [35] 10.2% | viability, T/C [36] 13.4%
90 nM: IC50 (second compound 10 µM)
126 nM: IC50 (second compound 0.0316 µM)
119 nM: IC50 (second compound 0.316 µM) | IC50 (second compound 3.16 µM)
117 nM: IC50 (second compound 0.1 µM)
109 nM: IC50 (second compound 1 µM)
